# Laboratory results taken from the supplement of paper PMC5908809.
# Tests used:
# Assay in all cases: relative IC50 (inflection point of fitted viability curve, relative to fitted max inhibition); higher = less sensitive
# Conditions in all cases: 72 h
# NK-92 (IL-2 2.5 ng/mL) = test system: NK-92 (IL-2 2.5 ng/mL)
# Experimental: (§1)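 Drug sensitivity and resistance testing: 5 concentrations over a 10,000-fold range, 72 h at 37 °C, viability by CellTiter-Glo normalised to DMSO and benzethonium chloride controls. IC50 is the inflection point of a logistic fit (min fixed at 0, max fitted), so it is relative to the fitted maximal inhibition. Kept only where fitted max inhibition is at least 50%.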
# [1] = test system: normal primary NK cells, pool 1 (3 donors) (IL-2 2.5 ng/mL)
# Experimental: as §1
# NKL (IL-2 2.5 ng/mL) = test system: NKL (IL-2 2.5 ng/mL)
# Experimental: as §1
# YT (IL-2 2.5 ng/mL) = test system: YT (IL-2 2.5 ng/mL)
# Experimental: as §1
# [2] = test system: normal primary NK cells, pool 2 (3 donors) (IL-2 2.5 ng/mL)
# Experimental: as §1
# KAI3 (IL-2 2.5 ng/mL) = test system: KAI3 (IL-2 2.5 ng/mL)
# Experimental: as §1
# NK-YS (IL-2 2.5 ng/mL) = test system: NK-YS (IL-2 2.5 ng/mL)
# Experimental: as §1
# DERL-7 (IL-2 2.5 ng/mL) = test system: DERL-7 (IL-2 2.5 ng/mL)
# Experimental: as §1
# [3] = test system: normal primary NK cells, pool 3 (3 donors) (IL-2 2.5 ng/mL)
# Experimental: as §1
# [4] = test system: normal primary NK cells, pool 1 (3 donors), resting (IL-2 0 ng/mL)
# Experimental: as §1
# IMC-1 (IL-2 20 ng/mL) = test system: IMC-1 (IL-2 20 ng/mL)
# Experimental: as §1
# SNK-6 (IL-2 2.5 ng/mL) = test system: SNK-6 (IL-2 2.5 ng/mL)
# Experimental: as §1
# KHYG-1 (IL-2 2.5 ng/mL) = test system: KHYG-1 (IL-2 2.5 ng/mL)
# Experimental: as §1
SMILES,relative IC50 (NK-92 (IL-2 2.5 ng/mL)) [nM],relative IC50 [1] [nM],relative IC50 (NKL (IL-2 2.5 ng/mL)) [nM],relative IC50 (YT (IL-2 2.5 ng/mL)) [nM],relative IC50 [2] [nM],relative IC50 (KAI3 (IL-2 2.5 ng/mL)) [nM],relative IC50 (NK-YS (IL-2 2.5 ng/mL)) [nM],relative IC50 (DERL-7 (IL-2 2.5 ng/mL)) [nM],relative IC50 [3] [nM],relative IC50 [4] [nM],relative IC50 (IMC-1 (IL-2 20 ng/mL)) [nM],relative IC50 (SNK-6 (IL-2 2.5 ng/mL)) [nM],relative IC50 (KHYG-1 (IL-2 2.5 ng/mL)) [nM]
Nc1nc(Cl)nc2c1ncn2[C@H]1C[C@H](O)[C@@H](CO)O1 [Cladribine],34.5,17.6,34.2,235,16.1,75.9,245,49.7,24.8,7.37,86,49.2,30.5
COCC[n+]1c2c(n(Cc3cnccn3)c1C)C(=O)c1ccccc1C2=O [YM155],17.8,691,3.09,7.77,780,10,15.5,9.75,1330,209,< 1,32.5,17.1
CC(C)c1cc(-c2n[nH]c(=O)n2-c2ccc3c(ccn3C)c2)c(O)cc1O [Ganetespib],16.8,5.67,10.4,35.8,5.41,11.8,13.1,5.92,9,6.18,32.3,28.3,27.4
CC(C)(C)c1cnc(CSc2cnc(NC(=O)C3CCNCC3)s2)o1 [SNS-032],224,45.8,22.6,84.1,54.3,75.8,38.6,61.3,102,53.4,36.2,74.8,277
CCCCc1nc2cc(/C=C/C(=O)NO)ccc2n1CCN(CC)CC [Pracinostat],112,163,76.5,213,159,69,189,168,211,93.7,233,207,149
COc1ccc(CCc2nc3cc(-c4c(C)noc4C)ccc3n2C[C@H](C)N2CCOCC2)cc1Cl [SGC-CBP30],10200,3540,1570,5050,3830,10100,3300,1490,5310,4340,–,–,4750
NC(=O)N1CCC(CC(=O)N2CCC([C@H]3c4ncc(Br)cc4CCc4cc(Cl)cc(Br)c43)CC2)CC1 [Lonafarnib],718,1660,–,1060,1580,–,450,708,1860,693,–,–,492
C[C@@H](Oc1cc(-n2cnc3ccc(CN4CCN(C)CC4)cc32)sc1C(N)=O)c1ccccc1C(F)(F)F,7.34,1780,46,53,1640,187,90.5,27.8,2340,374,37.1,32.2,17.1
Nc1ccccc1NC(=O)c1ccc(CNC(=O)OCc2cccnc2)cc1 [Entinostat],479,1330,494,2460,1530,399,1680,1570,2910,582,2330,456,954
C=CCc1cccc(/C=N/NC(=O)CN2CCN(Cc3ccccc3)CC2)c1O [PAC-1],845,2890,591,1620,2050,679,2740,1980,1910,3350,3020,996,543
COc1cc(OC2CCN(C)CC2)ccc1Nc1ncc2c(n1)n(C1CCCC1)c(=O)n2C [AZ 3146],3770,3160,2070,2020,2410,1580,1720,2330,2660,2250,2400,1870,2060
O=C(/C=C/c1cccc(S(=O)(=O)Nc2ccccc2)c1)NO [Belinostat],81.7,113,152,213,143,82.5,182,161,200,83.9,173,156,128
Nc1nc(F)nc2c1ncn2[C@@H]1O[C@H](CO)[C@@H](O)[C@@H]1O [Fludarabine],1560,996,895,–,957,2250,–,3720,1360,491,3130,–,2630
